The values below come from patent publication US10071164B2, “Estrogen-related receptor alpha based protac compounds and associated methods of use” (Yale University, priority 2014, dated 2018).

The target in series [1] is estrogen related receptor alpha (ERRα) (Homo sapiens, UniProt P11474). As to conditions: FIG. 5. The text has this:
[drawing 18] on the degradation of estrogen related receptor alpha (ERRα).

In a further series the target is T1, ERRα (Homo sapiens, UniProt P11474).
T1 sequence (P11474 1-423): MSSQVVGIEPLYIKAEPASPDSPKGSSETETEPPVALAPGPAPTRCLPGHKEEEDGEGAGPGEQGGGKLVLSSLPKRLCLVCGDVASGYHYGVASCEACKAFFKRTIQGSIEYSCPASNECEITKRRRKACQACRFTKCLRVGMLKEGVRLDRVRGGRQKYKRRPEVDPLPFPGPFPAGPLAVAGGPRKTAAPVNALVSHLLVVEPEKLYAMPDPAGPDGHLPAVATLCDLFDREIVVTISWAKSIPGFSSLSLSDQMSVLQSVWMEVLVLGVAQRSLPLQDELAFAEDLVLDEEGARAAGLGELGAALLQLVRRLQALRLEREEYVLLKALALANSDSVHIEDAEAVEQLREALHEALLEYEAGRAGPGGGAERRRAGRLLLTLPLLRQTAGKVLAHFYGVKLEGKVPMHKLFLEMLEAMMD
Put plainly: ERRα degradation in ST-486 cells. It counts as cell-based. More on the design: degration of ERRα in either MCF-7 cells or ST-486 cells; endogenous in cells; host or cells: ST-486. To be noted: ST486, column C, read-out: ERRα Degradation Dmax (Estimated) ST-486 cells. Here is the method:
Using the methods as described herein, the following exemplary PROTAC compounds were prepared (see Table below). The exemplary compounds were also assayed for their ability to effectuate the degration of ERRα in either MCF-7 cells or ST-486 cells. Thus, in certain embodiments, the description provides the compounds below, including compositions comprising effective amount of a compound as listed below or a derivative, analog, or a prodrug of the same, in combination with at least one of a pharmaceutically acceptable carrier, another active agent, including a second PROTAC molecule as described herein or a combination thereof. In additional embodiments, the disclosure provides a method of treating a disease or condition in a subject in need thereof, comprising administering a composition comprising an effective amount of a compound listed below, wherein the composition is effective for treating or ameliorating a symptom of the disease or condition.
Legend for following table: A=ERRα Degradation Dmax (Estimated) MCF-7 cells; B=ERRα Degradation DC50 (Estimated) MCF-7 cells; C=ERRα Degradation Dmax (Estimated) ST-486 cells; D=ERRα Degradation DC50 (Estimated) ST-486 cells

The next series has as its target VHL (Homo sapiens, UniProt P40337). Put plainly: VHL binding (stereocenter inversion). To be noted: inversion of stereocenter(s) of the VHL ligand.
Another series concerns the target RIPK2 (Homo sapiens, UniProt O43353). Kind of series: In vitro RIPK2 ubiquitination, reconstituted ubiquitination cascade. To be noted: quenched 15 min after initiation, PAGE and autoradiography. The format is biochemical. Here is the method:
Ubiquitination reactions were performed in three stages. In the first stage, RIPK2 (final 500 nM) was incubated for 10 min at room temperature with [^32P]g-ATP in kinase buffer (25 mM Tris pH 7.5, 50 mM KCl, 2 mM Mg(CH3CO2)2, 2 mM MnCl2, 2 mM DTT) to radiolabel RIPK2 through auto-phosphorylation. In the second stage, ubiquitination buffer (25 mM Tris pH 7.5, 5 mM MgCl2, 100 mM NaCl, 2 mM ATP, 0.1 mg/ml BSA, and 2 mM DTT) was added to complete auto-phosphorylation, and then VHL (final 250 nM) and indicated PROTACs (various concentrations) were added to the mixture to allow ternary complex formation. In parallel, UbE1 (final 25 nM), Ubc4 (final 250 nM), and ubiquitin (final 116 μM) were mixed in ubiquitination buffer to allow charging of the E2 enzyme with activated ubiquitin. In stage three of the reaction, the RIPK2-PROTAC-VHL and UbE1-Ubc4˜Ub mixtures were combined, and incubated at room temperature for various times before being quenched with Sample Buffer containing 5% b-mercaptoethanol. Ubiquitinated RIPK2 was then separated by 4-15% SDS-PAGE and imaged using a PhosphoImager Screen overnight.
RIPK2 was labeled by autophosphorylation and then incubated with the indicated concentrations of PROTAC and the reconstituted ubiquitination cascade. Samples were quenched 15 min after initiation of the reaction, and imaged by PAGE and autoradiography. RIPK2-Ubn is indicated.

For the next series, the system named is THP-1 cells. Put plainly: Trypan Blue cell viability assay. The format is cell-based. To be noted: 16 hours. How it is done:
FIG. 13 is a cell viability graph illustrating that PROTAC_RIPK2 is not toxic to cells. THP-1 cells were treated with the indicated concentration sof PROTAC_RIPK2 or PROTAC_RIPK2_epi for 16 hours, followed by a Trypan Blue assay to determine cell viability. Error bars represent mean and S.D.

Chain of RIPK2 (O43353 whole entry, species assumed): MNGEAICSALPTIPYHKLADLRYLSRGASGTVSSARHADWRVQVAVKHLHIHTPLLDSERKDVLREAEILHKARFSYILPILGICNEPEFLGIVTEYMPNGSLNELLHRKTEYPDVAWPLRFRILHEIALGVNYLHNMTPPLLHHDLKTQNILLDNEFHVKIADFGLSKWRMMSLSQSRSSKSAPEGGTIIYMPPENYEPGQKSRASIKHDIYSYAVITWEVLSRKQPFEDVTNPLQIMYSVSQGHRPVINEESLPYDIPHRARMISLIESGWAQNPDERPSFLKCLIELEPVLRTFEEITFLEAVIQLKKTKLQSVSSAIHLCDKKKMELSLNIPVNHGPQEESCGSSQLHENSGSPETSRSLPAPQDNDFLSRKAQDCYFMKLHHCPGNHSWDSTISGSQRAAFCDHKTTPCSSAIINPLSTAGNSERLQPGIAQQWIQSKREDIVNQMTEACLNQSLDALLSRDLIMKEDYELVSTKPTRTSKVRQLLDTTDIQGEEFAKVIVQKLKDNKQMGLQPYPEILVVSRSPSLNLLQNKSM
Chain of RIPK2 (P40337 whole entry, species assumed, further chain): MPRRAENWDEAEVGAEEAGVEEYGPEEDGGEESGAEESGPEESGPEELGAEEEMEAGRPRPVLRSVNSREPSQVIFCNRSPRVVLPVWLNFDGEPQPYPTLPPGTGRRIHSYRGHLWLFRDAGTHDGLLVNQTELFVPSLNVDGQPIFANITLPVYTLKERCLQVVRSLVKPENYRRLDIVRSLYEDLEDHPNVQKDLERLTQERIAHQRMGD
Chain of RIPK2 (Q15370 whole entry partner, species assumed): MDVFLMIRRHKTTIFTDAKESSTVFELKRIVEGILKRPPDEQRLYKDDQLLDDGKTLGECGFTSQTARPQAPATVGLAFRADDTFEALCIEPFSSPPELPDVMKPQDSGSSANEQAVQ
Chain of RIPK2 (Q15369 whole entry partner, species assumed): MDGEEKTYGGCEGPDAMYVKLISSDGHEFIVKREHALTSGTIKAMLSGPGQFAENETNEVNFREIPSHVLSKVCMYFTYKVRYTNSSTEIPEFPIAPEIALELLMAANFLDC
Chain of RIPK2 (Q13617 whole entry partner, species assumed): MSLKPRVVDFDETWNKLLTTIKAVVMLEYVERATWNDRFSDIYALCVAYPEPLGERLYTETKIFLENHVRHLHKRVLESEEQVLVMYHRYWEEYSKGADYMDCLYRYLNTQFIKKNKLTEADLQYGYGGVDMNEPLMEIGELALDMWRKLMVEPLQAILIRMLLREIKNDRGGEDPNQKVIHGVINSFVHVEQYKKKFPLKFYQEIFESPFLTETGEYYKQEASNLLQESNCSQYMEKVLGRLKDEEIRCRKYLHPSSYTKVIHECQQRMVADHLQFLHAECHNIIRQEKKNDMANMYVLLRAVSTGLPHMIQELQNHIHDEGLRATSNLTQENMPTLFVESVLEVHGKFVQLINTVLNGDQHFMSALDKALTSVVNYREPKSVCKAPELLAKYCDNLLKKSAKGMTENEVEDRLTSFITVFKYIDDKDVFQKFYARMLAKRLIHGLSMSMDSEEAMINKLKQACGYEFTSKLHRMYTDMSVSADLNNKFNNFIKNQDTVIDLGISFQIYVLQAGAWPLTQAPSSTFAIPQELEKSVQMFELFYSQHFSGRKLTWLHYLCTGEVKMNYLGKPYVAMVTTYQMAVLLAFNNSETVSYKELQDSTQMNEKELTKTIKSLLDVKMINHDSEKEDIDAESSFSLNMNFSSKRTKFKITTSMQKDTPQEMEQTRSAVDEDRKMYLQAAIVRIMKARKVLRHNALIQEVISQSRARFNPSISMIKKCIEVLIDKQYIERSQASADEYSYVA
Chain of RIPK2 (P62877 whole entry partner, species assumed): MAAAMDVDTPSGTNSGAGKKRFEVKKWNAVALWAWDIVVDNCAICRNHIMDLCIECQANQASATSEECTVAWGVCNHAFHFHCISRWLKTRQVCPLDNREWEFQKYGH
Chain of VHL (P40337 whole entry, species assumed): as the sequence (P40337 whole entry, species assumed, further chain) above
Chain of VHL (Q15370 whole entry partner, species assumed): as the sequence (Q15370 whole entry partner, species assumed) above
Chain of VHL (Q15369 whole entry partner, species assumed): as the sequence (Q15369 whole entry partner, species assumed) above

For the compound `COc1cc(/C=C2\SC(=O)NC2=O)ccc1Oc1ccc(C#N)cc1C(F)(F)F`, the “effect on the degradation of estrogen related receptor alpha (ERRα)” value in series [1] is “lack of effect”.
As a reminder, the Dmax is the largest share of the target that was removed. On to `COc1cc(/C=C2\SC(=O)N(Cc3ccc(CC(=O)N[C@H](C(=O)N4C[C@H](O)C[C@H]4C(=O)NCc4ccc(-c5scnc5C)cc4)C(C)(C)C)cc3)C2=O)ccc1Oc1ccc(C#N)cc1C(F)(F)F` [ARV N000413], for which, on ERRα, the maximal degradation (Dmax) was 98%.
As for `COc1cc(/C=C2\SC(=O)N(CCOCCC(=O)N[C@H](C(=O)N3C[C@H](O)C[C@H]3C(=O)NCc3ccc(-c4scnc4C)cc3)C(C)(C)C)C2=O)ccc1Oc1ccccc1C(F)(F)F` [ARV N000414], the Dmax on ERRα was 98%.
As for `COc1cc(/C=C2\SC(=O)N(CCOCCC(=O)N[C@H](C(=O)N3C[C@@H](O)C[C@H]3C(=O)NCc3ccc(-c4scnc4C)cc3)C(C)(C)C)C2=O)ccc1Oc1ccc(C#N)cc1C(F)(F)F` [PROTAC_ERRα_epi], on VHL, the VHL binding result is “abolishes VHL binding”.
Turning to `Cc1ncsc1-c1ccc(CNC(=O)[C@@H]2C[C@@H](O)CN2C(=O)[C@@H](NC(=O)COCCOCCOCCOCCOc2cc3nccc(Nc4ccc5scnc5c4)c3cc2S(=O)(=O)C(C)(C)C)C(C)(C)C)cc1` [PROTAC_RIPK2], the “direct RIPK2 ubiquitination in vitro” value on RIPK2 is given as “mediates direct RIPK2 ubiquitination”. For the same compound, in the series on THP-1 cells, the “cell viability (toxicity to cells)” value is given as “not toxic”.
